Values of other authors as cited in US6689399B1, “Transdermal delivery of an anti-inflammatory composition” (priority 2000, dated 2004).

Assays:
[1] = three trials, capsaicin cream (two 0.025%, one 0.075%) four times daily for four weeks; placebo 16%
[2] = four trials, 0.025% capsaicin cream four times daily for 6-8 weeks; placebo 42%
[3] = four trials, 0.075% capsaicin cream four times daily for 4-8 weeks; placebo 49%
[4] = single trial, 0.075% capsaicin cream three or four times daily for three weeks; 4/16; placebo 6%
[5] = single trial, 0.075% capsaicin cream four times daily for six weeks; 5/13; placebo 10%

For `COc1cc(CNC(=O)CCCC/C=C/C(C)C)ccc1O` [capsaicin, trans-8-methyl-N-vanillyl-6-nonenamide], the “patients responding to capsaicin, osteoarthritis” value [1] is listed as 45%, the “patients responding to capsaicin, psoriasis” value [2] is listed as 68% and the “patients responding to capsaicin, diabetic neuropathy” value [3] is listed as 73%. The “patients reporting pain relief, postherpetic neuralgia” value [4] was 25% and the “patients reporting pain relief, postmastectomy pain” value [5] was 38%.
